Experimental data published in US11534457B2, “Use of dextran sulfate” (priority 2017, dated 2022).

B1: HGF: Hepatocyte growth factor (HGF) recombinant mouse (R&D Systems) (protein, UniProt Q08048 33-495; Q08048 496-728, looked up)
Hepatocyte growth factor …: QKKRRNTLHEFKKSAKTTLTKEDPLLKIKTKKVNSADECANRCIRNRGFTFTCKAFVFDKSRKRCYWYPFNSMSSGVKKGFGHEFDLYENKDYIRNCIIGKGGSYKGTVSITKSGIKCQPWNSMIPHEHSFLPSSYRGKDLQENYCRNPRGEEGGPWCFTSNPEVRYEVCDIPQCSEVECMTCNGESYRGPMDHTESGKTCQRWDQQTPHRHKFLPERYPDKGFDDNYCRNPDGKPRPWCYTLDPDTPWEYCAIKTCAHSAVNETDVPMETTECIQGQGEGYRGTSNTIWNGIPCQRWDSQYPHKHDITPENFKCKDLRENYCRNPDGAESPWCFTTDPNIRVGYCSQIPKCDVSSGQDCYRGNGKNYMGNLSKTRSGLTCSMWDKNMEDLHRHIFWEPDASKLNKNYCRNPDDDAHGPWCYTGNPLIPWDYCPISRCEGDTTPTIVNLDHPVISCAKTKQLR
Hepatocyte growth factor beta …: VVNGIPTQTTVGWMVSLKYRNKHICGGSLIKESWVLTARQCFPARNKDLKDYEAWLGIHDVHERGEEKRKQILNISQLVYGPEGSDLVLLKLARPAILDNFVSTIDLPSYGCTIPEKTTCSIYGWGYTGLINADGLLRVAHLYIMGNEKCSQHHQGKVTLNESELCAGAEKIGSGPCEGDYGGPLICEQHKMRMVLGVIVPGRGCAIPNRPGIFVRVAYYAKWIHKVILTYKL

Experiments:
[1] = biological target: T1, protein-protein interaction between oligomeric amyloid-β and PrP^c (Homo sapiens, UniProt P04156); format: binding
[2] = biological target: T1, protein-protein interaction between oligomeric amyloid-β and PrP^c; details: cited from earlier work
[3] = system: Experimental Autoimmune Encephalomyelitis (EAE); assay: Mouse Experimental Autoimmune Encephalomyelitis (EAE) model, clinical score; format: in vivo, C57B1.6 mice; details: 100 ng/dose i.v. every other day from day 18

Molecule	competition for the protein-protein interaction (in words) [1]	Competable binding (%) [1] [%]	Hill coefficient [1]	IC50 [1] [µg/mL]	effective concentrations to compete with the protein-protein interaction (Aimi et al.) [2]	mean EAE score vs vehicle [3]
dextran	failed to compete appreciably					
dextran sulphate sodium salt [DSSS]	competed for the protein-protein interaction between oligomeric amyloid-β and PrP^c in a concentration dependent manner	101 ± 2	1.51 ± 0.06	0.62 ± 0.07	in the low μg/ml range	
B1						did not result in any significant difference
